Laboratory results taken from ChEMBL document CHEMBL3046288, “Effect of isoxaflutole on the growth, nodulation and nitrogen fixation of chickpea (Cicer arietinum L.)” (Crop Prot, 2009).

How the values were obtained:
Format in all cases: organism-based
Cicer arietinum [1] = assay: Toxicity in drug-sensitive Cicer arietinum (chickpea) assessed as effect on root nitrogen level per gram of root dry weight at 75 g/ha after 42 days (reference value: 13.4 mg); details: in vivo, 1008 h
Cicer arietinum [2] = assay: Toxicity in drug-tolerant Cicer arietinum (chickpea) assessed as effect on root nitrogen level per gram of root dry weight at 75 g/ha after 42 days (reference value: 12.1 mg); details: in vivo, other, 1008 h
Cicer arietinum [3] = assay: Toxicity in drug-sensitive Cicer arietinum (chickpea) assessed as effect on average nodule weight at 75 g/ha after 42 days (reference value: 1.31 mg); details: in vivo, 1008 h
Cicer arietinum [4] = assay: Toxicity in drug-tolerant Cicer arietinum (chickpea) assessed as effect on average nodule weight at 75 g/ha after 42 days (reference value: 1.21 mg); details: in vivo, 1008 h
Cicer arietinum [5] = assay: Toxicity in drug-sensitive Cicer arietinum (chickpea) assessed as effect on nodule dry weight per gram of root dry weight at 75 g/ha after 42 days (reference value: 258 mg); details: in vivo, 1008 h
Cicer arietinum [6] = assay: Toxicity in drug-tolerant Cicer arietinum (chickpea) assessed as effect on nodule dry weight per gram of root dry weight at 75 g/ha after 42 days (reference value: 209.7 mg); details: in vivo, other, 1008 h
Cicer arietinum [7] = assay: Toxicity in drug-sensitive Cicer arietinum (chickpea) assessed as effect on root dry weight per pot at 75 g/ha after 42 days (reference value: 0.26 gram); details: in vivo, 1008 h
Cicer arietinum [8] = assay: Toxicity in drug-tolerant Cicer arietinum (chickpea) assessed as effect on root dry weight per pot at 75 g/ha after 42 days (reference value: 0.30 gram); details: in vivo, 1008 h
Cicer arietinum [9] = assay: Toxicity in drug-sensitive Cicer arietinum (chickpea) assessed as effect on shoot dry weight per pot at 75 g/ha after 42 days in presence of 1.5 mM of nitrate (reference value: 0.38 gram); details: in vivo, 1008 h
Cicer arietinum [10] = assay: Toxicity in drug-tolerant Cicer arietinum (chickpea) assessed as effect on shoot dry weight per pot at 75 g/ha after 42 days in presence of 1.5 mM of nitrate (reference value: 0.50 gram); details: in vivo, 1008 h
Cicer arietinum [11] = assay: Toxicity in drug-tolerant Cicer arietinum (chickpea) assessed as effect on shoot dry weight per pot at 75 g/ha after 42 days (reference value: 0.53 gram); details: in vivo, 1008 h
Cicer arietinum [12] = assay: Toxicity in drug-sensitive Cicer arietinum (chickpea) assessed as effect on shoot dry weight per pot at 75 g/ha after 42 days (reference value: 0.50 gram); details: in vivo, 1008 h
Cicer arietinum [13] = assay: Toxicity in drug-sensitive Cicer arietinum (chickpea) assessed as effect on plant height at 75 g/ha after 42 days (reference value: 21.8 cm); details: in vivo, 1008 h
Cicer arietinum [14] = assay: Toxicity in drug-tolerant Cicer arietinum (chickpea) assessed as effect on plant height at 75 g/ha after 42 days (reference value: 21.4 cm); details: in vivo, 1008 h
Cicer arietinum [15] = assay: Toxicity in drug-tolerant Cicer arietinum (chickpea) assessed as effect on amount of fixed nitrogen level per gram of plant dry weight at 75 g/ha after 42 days in presence of 1.5 mM of nitrate (reference value: 5.9 mg); details: in vivo, 1008 h
Cicer arietinum [16] = assay: Toxicity in drug-sensitive Cicer arietinum (chickpea) assessed as effect on amount of fixed nitrogen level per gram of plant dry weight at 75 g/ha after 42 days in presence of 1.5 mM of nitrate (reference value: 6 mg); details: in vivo, 1008 h
Cicer arietinum [17] = assay: Toxicity in drug-sensitive Cicer arietinum (chickpea) assessed as effect on amount of fixed nitrogen level per gram of plant dry weight at 75 g/ha after 42 days (reference value: 5.5 mg); details: in vivo, 1008 h
Cicer arietinum [18] = assay: Toxicity in drug-tolerant Cicer arietinum (chickpea) assessed as effect on amount of fixed nitrogen level per gram of plant dry weight at 75 g/ha after 42 days (reference value: 5.5 mg); details: in vivo, 1008 h
Cicer arietinum [19] = assay: Toxicity in drug-sensitive Cicer arietinum (chickpea) assessed as effect on total nitrogen level per gram of plant dry weight at 75 g/ha after 42 days (reference value: 34.5 mg); details: in vivo, 1008 h
Cicer arietinum [20] = assay: Toxicity in drug-tolerant Cicer arietinum (chickpea) assessed as effect on total nitrogen level per gram of plant dry weight at 75 g/ha after 42 days (reference value: 31.1 mg); details: in vivo, 1008 h

## CS(=O)(=O)c1cc(C(F)(F)F)ccc1C(=O)c1cnoc1C1CC1 [ISOXAFLUTOLE]
Cicer arietinum [1]
  Activity: 8.1 mg
Cicer arietinum [2]
  Activity: 11.1 mg
Cicer arietinum [3]
  Activity: 0.76 mg
Cicer arietinum [4]
  Activity: 1.16 mg
Cicer arietinum [5]
  Activity: 123.7 mg
Cicer arietinum [6]
  Activity: 174.9 mg
Cicer arietinum [7]
  Activity: 0.13 g
Cicer arietinum [8]
  Activity: 0.27 g
Cicer arietinum [9]
  Activity: 0.51 g
Cicer arietinum [10]
  Activity: 0.54 g
Cicer arietinum [11]
  Activity: 0.51 g
Cicer arietinum [12]
  Activity: 0.39 g
Cicer arietinum [13]
  Activity: 15.5 cm
Cicer arietinum [14]
  Activity: 20.6 cm
Cicer arietinum [15]
  Activity: 3.1 mg
Cicer arietinum [16]
  Activity: 4.6 mg
Cicer arietinum [17]
  Activity: 3.5 mg
Cicer arietinum [18]
  Activity: 3.7 mg
Cicer arietinum [19]
  Activity: 27.4 mg
Cicer arietinum [20]
  Activity: 30.1 mg
